Reference: the kinase profiling compilation of Christmann-Franck et al. (2016)

Experiments:
Assay in all cases: KINOMEscan competition binding
Conditions in all cases: compound 10.0 µM
ADCK3 (human) = ADCK3 (human) (UniProt Q8NI60)
BMX (human) = BMX (human) (UniProt P51813)
CAMK1G (human) = CAMK1G (human) (UniProt Q96NX5)
CDK3 (human) = CDK3 (human) (UniProt Q00526)
CLK3 (human) = CLK3 (human) (UniProt P49761)
DCLK1 (human) = DCLK1 (human) (UniProt O15075)
DSTYK (human) = DSTYK (human) (UniProt Q6XUX3)
FES (human) = FES (human) (UniProt P07332)
FLT3 (human) = FLT3 (human) (UniProt P36888)
HIPK2 (human) = HIPK2 (human) (UniProt Q9H2X6)
HUNK (human) = HUNK (human) (UniProt P57058)
[1] = target: JAK1 JH1 catalytic (human) (UniProt P23458)
[2] = tested on: KIT (human), P10721 [D816H]
LTK (human) = LTK (human) (UniProt P29376)
Chain of LTK (human) (P29376 whole entry, looked up): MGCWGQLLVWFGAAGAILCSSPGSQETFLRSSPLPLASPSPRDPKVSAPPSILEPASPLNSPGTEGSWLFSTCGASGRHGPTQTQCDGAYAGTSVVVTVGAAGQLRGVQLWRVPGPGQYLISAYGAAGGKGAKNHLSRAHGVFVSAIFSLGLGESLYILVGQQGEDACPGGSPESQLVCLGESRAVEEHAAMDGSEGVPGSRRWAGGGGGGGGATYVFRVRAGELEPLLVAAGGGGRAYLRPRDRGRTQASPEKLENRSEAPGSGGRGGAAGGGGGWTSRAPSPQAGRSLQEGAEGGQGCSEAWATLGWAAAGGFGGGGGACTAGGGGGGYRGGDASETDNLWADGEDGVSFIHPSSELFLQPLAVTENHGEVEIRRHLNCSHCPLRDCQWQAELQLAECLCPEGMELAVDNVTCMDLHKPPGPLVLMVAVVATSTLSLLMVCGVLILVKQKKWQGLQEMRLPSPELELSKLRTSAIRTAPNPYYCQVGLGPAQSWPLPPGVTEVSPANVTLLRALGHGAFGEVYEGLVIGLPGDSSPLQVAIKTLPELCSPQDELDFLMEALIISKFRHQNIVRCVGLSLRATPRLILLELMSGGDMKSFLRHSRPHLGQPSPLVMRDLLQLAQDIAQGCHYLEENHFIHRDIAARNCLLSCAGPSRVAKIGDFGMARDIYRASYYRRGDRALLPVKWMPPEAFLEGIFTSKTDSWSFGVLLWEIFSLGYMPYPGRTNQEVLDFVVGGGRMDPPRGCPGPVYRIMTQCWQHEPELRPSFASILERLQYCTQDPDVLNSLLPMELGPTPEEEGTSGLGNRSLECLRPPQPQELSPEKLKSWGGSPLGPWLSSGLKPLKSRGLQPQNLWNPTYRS

MAP3K3 (human) = MAP3K3 (human) (UniProt Q99759)
MAP4K3 (human) = MAP4K3 (human) (UniProt Q8IVH8)
MAP4K4 (human) = MAP4K4 (human) (UniProt O95819)
Chain of MAP4K4 (human) (O95819 whole entry, looked up): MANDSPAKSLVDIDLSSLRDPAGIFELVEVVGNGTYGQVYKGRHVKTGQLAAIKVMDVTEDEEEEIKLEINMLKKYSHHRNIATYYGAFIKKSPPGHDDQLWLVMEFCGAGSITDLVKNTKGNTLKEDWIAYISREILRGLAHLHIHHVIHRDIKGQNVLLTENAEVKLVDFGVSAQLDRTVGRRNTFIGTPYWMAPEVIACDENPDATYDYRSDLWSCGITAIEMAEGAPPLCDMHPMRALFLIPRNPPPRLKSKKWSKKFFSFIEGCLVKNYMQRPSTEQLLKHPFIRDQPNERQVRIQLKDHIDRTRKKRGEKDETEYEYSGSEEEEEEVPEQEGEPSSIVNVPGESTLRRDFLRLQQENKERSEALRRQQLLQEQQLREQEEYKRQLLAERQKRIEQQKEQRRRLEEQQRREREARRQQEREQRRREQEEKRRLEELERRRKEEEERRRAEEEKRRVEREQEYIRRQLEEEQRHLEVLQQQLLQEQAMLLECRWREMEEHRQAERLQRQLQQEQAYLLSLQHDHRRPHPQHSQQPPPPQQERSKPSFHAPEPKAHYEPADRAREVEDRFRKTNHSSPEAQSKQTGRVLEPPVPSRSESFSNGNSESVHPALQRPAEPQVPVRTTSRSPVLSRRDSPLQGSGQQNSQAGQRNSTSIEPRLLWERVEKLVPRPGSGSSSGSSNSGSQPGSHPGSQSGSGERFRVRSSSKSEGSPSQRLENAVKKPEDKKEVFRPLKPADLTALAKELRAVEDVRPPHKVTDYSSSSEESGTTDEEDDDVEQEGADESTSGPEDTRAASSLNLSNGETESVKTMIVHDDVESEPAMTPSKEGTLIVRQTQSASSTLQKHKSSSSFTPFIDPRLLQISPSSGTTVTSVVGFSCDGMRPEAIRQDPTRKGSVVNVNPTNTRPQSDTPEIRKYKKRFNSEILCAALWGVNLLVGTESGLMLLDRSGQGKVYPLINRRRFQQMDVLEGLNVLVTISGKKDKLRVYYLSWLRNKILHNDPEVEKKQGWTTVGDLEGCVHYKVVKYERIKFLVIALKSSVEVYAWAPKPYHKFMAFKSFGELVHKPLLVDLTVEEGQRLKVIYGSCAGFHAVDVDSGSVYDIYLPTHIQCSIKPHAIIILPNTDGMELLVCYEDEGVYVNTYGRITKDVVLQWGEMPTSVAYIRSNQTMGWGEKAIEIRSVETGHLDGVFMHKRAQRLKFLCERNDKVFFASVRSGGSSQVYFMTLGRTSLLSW

MAPK3 (human) = MAPK3 (human) (UniProt P27361)
MERTK (human) = MERTK (human) (UniProt Q12866)
MINK1 (human) = MINK1 (human) (UniProt Q8N4C8)
MTOR (human) = MTOR (human) (UniProt P42345)
MYLK2 (human) = MYLK2 (human) (UniProt Q9H1R3)
Chain of MYLK2 (human) (Q9H1R3 whole entry, looked up): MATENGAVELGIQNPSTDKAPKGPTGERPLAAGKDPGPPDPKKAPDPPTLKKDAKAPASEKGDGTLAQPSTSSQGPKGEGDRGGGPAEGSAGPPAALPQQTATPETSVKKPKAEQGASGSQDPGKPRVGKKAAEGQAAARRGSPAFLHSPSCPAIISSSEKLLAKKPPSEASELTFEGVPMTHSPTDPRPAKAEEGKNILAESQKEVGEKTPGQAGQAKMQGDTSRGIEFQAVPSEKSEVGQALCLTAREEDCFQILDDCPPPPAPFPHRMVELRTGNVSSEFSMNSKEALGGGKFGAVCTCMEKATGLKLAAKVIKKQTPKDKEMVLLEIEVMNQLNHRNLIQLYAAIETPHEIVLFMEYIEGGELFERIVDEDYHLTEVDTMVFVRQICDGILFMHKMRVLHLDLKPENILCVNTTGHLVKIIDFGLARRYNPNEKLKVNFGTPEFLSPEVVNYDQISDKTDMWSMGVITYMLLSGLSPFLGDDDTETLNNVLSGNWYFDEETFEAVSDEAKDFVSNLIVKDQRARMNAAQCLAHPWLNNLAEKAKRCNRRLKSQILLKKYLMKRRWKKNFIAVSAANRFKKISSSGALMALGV

MYO3A (human) = MYO3A (human) (UniProt Q8NEV4)
NEK5 (human) = NEK5 (human) (UniProt Q6P3R8)
PAK4 (human) = PAK4 (human) (UniProt O96013)
Chain of PAK4 (human) (O96013 whole entry, looked up): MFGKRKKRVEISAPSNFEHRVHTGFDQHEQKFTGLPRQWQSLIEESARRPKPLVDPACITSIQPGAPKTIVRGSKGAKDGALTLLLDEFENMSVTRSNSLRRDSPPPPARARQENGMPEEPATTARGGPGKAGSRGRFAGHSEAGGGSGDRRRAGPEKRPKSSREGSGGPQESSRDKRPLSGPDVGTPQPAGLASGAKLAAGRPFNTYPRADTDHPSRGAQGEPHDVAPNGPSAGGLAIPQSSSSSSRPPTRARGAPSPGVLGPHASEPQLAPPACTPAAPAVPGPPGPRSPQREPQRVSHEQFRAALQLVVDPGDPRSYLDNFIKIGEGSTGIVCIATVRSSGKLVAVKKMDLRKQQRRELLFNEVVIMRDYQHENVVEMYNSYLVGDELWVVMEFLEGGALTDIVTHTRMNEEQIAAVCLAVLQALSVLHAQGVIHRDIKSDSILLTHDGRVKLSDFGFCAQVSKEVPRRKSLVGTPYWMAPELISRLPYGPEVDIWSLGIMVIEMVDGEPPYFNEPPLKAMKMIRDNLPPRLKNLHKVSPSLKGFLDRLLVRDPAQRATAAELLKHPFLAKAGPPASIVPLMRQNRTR

[3] = tested on: PIK3CA (human), P42336 [I800L]
[4] = tested on: PIK3CA (human), P42336 [M1043I]
[5] = tested on: PIK3CA (human), P42336 [Q546K]
PIP4K2B (human) = PIP4K2B (human) (UniProt P78356)
PRKD2 (human) = PRKD2 (human) (UniProt Q9BZL6)
RET (human) = RET (human) (UniProt P07949)
RIOK1 (human) = RIOK1 (human) (UniProt Q9BRS2)
RPS6KA1 KD1 (human) = RPS6KA1 KD1 (human) (UniProt Q15418)
SIK3 (human) = SIK3 (human) (UniProt Q9Y2K2)
SLK (human) = SLK (human) (UniProt Q9H2G2)
Chain of SLK (human) (Q9H2G2 whole entry, looked up): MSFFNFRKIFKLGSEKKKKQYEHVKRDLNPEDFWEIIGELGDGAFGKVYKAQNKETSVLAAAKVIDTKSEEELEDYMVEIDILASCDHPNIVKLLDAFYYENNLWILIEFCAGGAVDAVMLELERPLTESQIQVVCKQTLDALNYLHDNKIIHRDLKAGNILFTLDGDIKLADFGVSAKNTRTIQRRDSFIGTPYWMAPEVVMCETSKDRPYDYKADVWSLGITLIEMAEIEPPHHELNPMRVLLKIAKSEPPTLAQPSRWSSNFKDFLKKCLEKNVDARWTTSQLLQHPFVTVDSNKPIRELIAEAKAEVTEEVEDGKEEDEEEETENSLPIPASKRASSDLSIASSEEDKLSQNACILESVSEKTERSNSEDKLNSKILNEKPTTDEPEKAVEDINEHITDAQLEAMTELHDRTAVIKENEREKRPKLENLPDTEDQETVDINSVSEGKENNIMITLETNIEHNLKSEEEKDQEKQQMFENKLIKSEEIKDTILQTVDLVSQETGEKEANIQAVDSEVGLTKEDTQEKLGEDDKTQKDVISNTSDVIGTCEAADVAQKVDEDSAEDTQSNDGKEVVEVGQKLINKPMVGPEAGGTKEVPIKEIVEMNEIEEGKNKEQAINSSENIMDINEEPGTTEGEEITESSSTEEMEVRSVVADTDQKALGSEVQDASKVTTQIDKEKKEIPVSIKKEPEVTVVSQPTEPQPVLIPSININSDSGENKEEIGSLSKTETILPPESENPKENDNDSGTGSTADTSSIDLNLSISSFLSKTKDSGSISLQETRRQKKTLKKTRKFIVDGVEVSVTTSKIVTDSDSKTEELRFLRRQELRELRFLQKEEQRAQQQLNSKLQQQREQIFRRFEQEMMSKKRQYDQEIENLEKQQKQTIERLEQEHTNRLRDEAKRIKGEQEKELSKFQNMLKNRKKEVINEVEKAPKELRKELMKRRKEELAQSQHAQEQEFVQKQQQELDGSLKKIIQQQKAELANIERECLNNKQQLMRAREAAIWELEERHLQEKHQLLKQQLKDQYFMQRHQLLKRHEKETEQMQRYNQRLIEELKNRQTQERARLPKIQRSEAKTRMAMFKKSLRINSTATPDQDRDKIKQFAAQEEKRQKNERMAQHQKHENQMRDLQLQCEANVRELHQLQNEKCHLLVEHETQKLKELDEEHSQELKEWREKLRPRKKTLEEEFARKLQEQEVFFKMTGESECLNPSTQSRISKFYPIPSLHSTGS

SRPK3 (human) = SRPK3 (human) (UniProt Q9UPE1)
STK24 (human) = STK24 (human) (UniProt Q9Y6E0)
STK32B (human) = STK32B (human) (UniProt Q9NY57)
STK38L (human) = STK38L (human) (UniProt Q9Y2H1)
SYK (human) = SYK (human) (UniProt P43405)
TAOK3 (human) = TAOK3 (human) (UniProt Q9H2K8)

Chain of CLK3 (human) (P49761 whole entry, looked up): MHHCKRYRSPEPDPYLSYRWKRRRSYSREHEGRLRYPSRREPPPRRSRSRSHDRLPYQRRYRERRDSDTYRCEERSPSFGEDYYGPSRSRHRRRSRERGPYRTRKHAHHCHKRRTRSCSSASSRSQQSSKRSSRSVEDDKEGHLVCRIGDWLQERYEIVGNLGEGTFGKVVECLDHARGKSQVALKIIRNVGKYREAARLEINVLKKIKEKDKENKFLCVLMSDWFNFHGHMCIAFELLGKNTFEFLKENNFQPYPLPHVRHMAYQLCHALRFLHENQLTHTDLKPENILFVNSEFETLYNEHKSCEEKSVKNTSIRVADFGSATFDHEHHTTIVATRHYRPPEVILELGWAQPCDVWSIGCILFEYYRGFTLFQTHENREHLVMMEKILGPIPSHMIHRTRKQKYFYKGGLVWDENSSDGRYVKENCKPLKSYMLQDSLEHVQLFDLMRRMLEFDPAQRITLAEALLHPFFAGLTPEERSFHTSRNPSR

`COC(=O)Nc1ccc(-c2nc(N3CCOCC3)c3cnn(C4CCN(C(=O)OC)CC4)c3n2)cc1` was tested, and the kinase still bound, per cent of control (ADCK3 (human)) was 80%, the kinase still bound, per cent of control (BMX (human)) was 94% and the kinase still bound, per cent of control (CAMK1G (human)) was 92%. It also gave a per cent of control (CDK3 (human)) of 100%, a kinase still bound, per cent of control (CLK3 (human)) of 100% and a kinase still bound, per cent of control (DCLK1 (human)) of 93%. The kinase still bound, per cent of control (DSTYK (human)) was 100%, the kinase still bound, per cent of control (FES (human)) was 100% and the kinase still bound, per cent of control (FLT3 (human)) was 100%. The kinase still bound, per cent of control (HIPK2 (human)) was 65%, the kinase still bound, per cent of control (HUNK (human)) was 95% and the kinase still bound, per cent of control [1] was 100%. The kinase still bound, per cent of control [2] was 75%, the kinase still bound, per cent of control (LTK (human)) was 87% and the kinase still bound, per cent of control (MAP3K3 (human)) was 81%. The kinase still bound, per cent of control (MAP4K3 (human)) was 74%, the kinase still bound, per cent of control (MAP4K4 (human)) was 88% and the kinase still bound, per cent of control (MAPK3 (human)) was 99%. The kinase still bound, per cent of control (MERTK (human)) was 100%, the kinase still bound, per cent of control (MINK1 (human)) was 100% and the kinase still bound, per cent of control (MTOR (human)) was 0%. The kinase still bound, per cent of control (MYLK2 (human)) was 100%, the kinase still bound, per cent of control (MYO3A (human)) was 100% and the kinase still bound, per cent of control (NEK5 (human)) was 100%. For the same molecule, the kinase still bound, per cent of control (PAK4 (human)) was 100%, the kinase still bound, per cent of control [3] was 0.4% and the kinase still bound, per cent of control [4] was 6.8%. The kinase still bound, per cent of control [5] was 6.8%, the kinase still bound, per cent of control (PIP4K2B (human)) was 100% and the kinase still bound, per cent of control (PRKD2 (human)) was 100%. For the same molecule, the kinase still bound, per cent of control (RET (human)) was 93%, the kinase still bound, per cent of control (RIOK1 (human)) was 92% and the kinase still bound, per cent of control (RPS6KA1 KD1 (human)) was 100%. It also gave a kinase still bound, per cent of control (SIK3 (human)) of 83%, a kinase still bound, per cent of control (SLK (human)) of 70% and a kinase still bound, per cent of control (SRPK3 (human)) of 100%. The kinase still bound, per cent of control (STK24 (human)) was 100%, the kinase still bound, per cent of control (STK32B (human)) was 100% and the kinase still bound, per cent of control (STK38L (human)) was 97%. It also gave a kinase still bound, per cent of control (SYK (human)) of 83% and a kinase still bound, per cent of control (TAOK3 (human)) of 94%.

Work on `CC(C)n1nc(-c2cc3cc(O)ccc3[nH]2)c2c(N)ncnc21` yielded a kinase still bound, per cent of control (ADCK3 (human)) of 57%, a kinase still bound, per cent of control (CAMK1G (human)) of 77% and a per cent of control (CDK3 (human)) of 100%. For the same molecule, the kinase still bound, per cent of control (CLK3 (human)) was 66%, the kinase still bound, per cent of control (DCLK1 (human)) was 70% and the kinase still bound, per cent of control (DSTYK (human)) was 5.8%. For the same molecule, the kinase still bound, per cent of control (FES (human)) was 100%, the kinase still bound, per cent of control (FLT3 (human)) was 40% and the kinase still bound, per cent of control (HIPK2 (human)) was 0.9%. It also gave a kinase still bound, per cent of control (HUNK (human)) of 99%, a kinase still bound, per cent of control [1] of 11% and a kinase still bound, per cent of control [2] of 16%. For the same molecule, the kinase still bound, per cent of control (LTK (human)) was 16%, the kinase still bound, per cent of control (MAP3K3 (human)) was 3.2% and the kinase still bound, per cent of control (MAP4K3 (human)) was 52%. The kinase still bound, per cent of control (MAP4K4 (human)) was 38%, the kinase still bound, per cent of control (MAPK3 (human)) was 100% and the kinase still bound, per cent of control (MERTK (human)) was 61%. For the same molecule, the kinase still bound, per cent of control (MINK1 (human)) was 7.7%, the kinase still bound, per cent of control (MTOR (human)) was 0% and the kinase still bound, per cent of control (MYLK2 (human)) was 43%. For the same molecule, the kinase still bound, per cent of control (MYO3A (human)) was 12%, the kinase still bound, per cent of control (NEK5 (human)) was 86% and the kinase still bound, per cent of control (PAK4 (human)) was 13%. The kinase still bound, per cent of control (PIP4K2B (human)) was 55%, the kinase still bound, per cent of control (PRKD2 (human)) was 100% and the kinase still bound, per cent of control (RET (human)) was 0%. It also gave a kinase still bound, per cent of control (RIOK1 (human)) of 100%, a kinase still bound, per cent of control (RPS6KA1 KD1 (human)) of 32% and a kinase still bound, per cent of control (SIK3 (human)) of 20%. The kinase still bound, per cent of control (SLK (human)) was 0.2%, the kinase still bound, per cent of control (SRPK3 (human)) was 83% and the kinase still bound, per cent of control (STK24 (human)) was 67%. It also gave a kinase still bound, per cent of control (STK32B (human)) of 8.2%, a kinase still bound, per cent of control (STK38L (human)) of 63% and a kinase still bound, per cent of control (SYK (human)) of 100%. The kinase still bound, per cent of control (TAOK3 (human)) was 4.7%.

`CCC(=O)N1CCN(c2ccc(-n3c(=O)ccc4cnc5ccc(-c6cnc7ccccc7c6)cc5c43)cc2C(F)(F)F)CC1` was tested, and the kinase still bound, per cent of control (ADCK3 (human)) was 17%, the kinase still bound, per cent of control (BMX (human)) was 59% and the kinase still bound, per cent of control (CAMK1G (human)) was 74%. The per cent of control (CDK3 (human)) was 100%, the kinase still bound, per cent of control (CLK3 (human)) was 43% and the kinase still bound, per cent of control (DCLK1 (human)) was 100%. It also gave a kinase still bound, per cent of control (DSTYK (human)) of 28%, a kinase still bound, per cent of control (FES (human)) of 41% and a kinase still bound, per cent of control (FLT3 (human)) of 16%. The kinase still bound, per cent of control (HIPK2 (human)) was 58%, the kinase still bound, per cent of control (HUNK (human)) was 91% and the kinase still bound, per cent of control [1] was 82%. It also gave a kinase still bound, per cent of control (LTK (human)) of 77%, a kinase still bound, per cent of control (MAP3K3 (human)) of 75% and a kinase still bound, per cent of control (MAP4K3 (human)) of 1.9%. The kinase still bound, per cent of control (MAP4K4 (human)) was 5.2%, the kinase still bound, per cent of control (MAPK3 (human)) was 91% and the kinase still bound, per cent of control (MERTK (human)) was 53%. It also gave a kinase still bound, per cent of control (MINK1 (human)) of 19%, a kinase still bound, per cent of control (MYLK2 (human)) of 40% and a kinase still bound, per cent of control (MYO3A (human)) of 100%. It also gave a kinase still bound, per cent of control (NEK5 (human)) of 5.8%, a kinase still bound, per cent of control (PAK4 (human)) of 100% and a kinase still bound, per cent of control [3] of 0%. The kinase still bound, per cent of control [4] was 8.6%, the kinase still bound, per cent of control [5] was 6.8% and the kinase still bound, per cent of control (PIP4K2B (human)) was 100%. The kinase still bound, per cent of control (PRKD2 (human)) was 100%, the kinase still bound, per cent of control (RET (human)) was 44% and the kinase still bound, per cent of control (RIOK1 (human)) was 81%. The kinase still bound, per cent of control (RPS6KA1 KD1 (human)) was 68%, the kinase still bound, per cent of control (SIK3 (human)) was 89% and the kinase still bound, per cent of control (SLK (human)) was 94%. The kinase still bound, per cent of control (STK24 (human)) was 100%, the kinase still bound, per cent of control (STK32B (human)) was 87% and the kinase still bound, per cent of control (STK38L (human)) was 94%. For the same molecule, the kinase still bound, per cent of control (SYK (human)) was 78% and the kinase still bound, per cent of control (TAOK3 (human)) was 76%.
